Assay results taken from ChEMBL document CHEMBL1201862, “PubChem BioAssay data set” (2004).
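Grown in 96-well plates, cells were treated for 48 hours with each compound at five concentrations. Insufficient inhibition: endpoint recorded as highest concentration tested. GI50 is the concentration that inhibits growth by half.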 The source made the active and inactive calls. No stated cut-off is given here; in the data, active = GI50 up to about 1.1 µM and inactive = higher.

Columns and labels:
Assay in all cases: NCI-60 cell line screen, 48 h
A549 = system: A549
CAKI-1 = system: CAKI-1
CCRF-CEM = system: CCRF-CEM
COLO 205 = system: COLO 205
EKVX = system: EKVX
HCT-15 = system: HCT-15
IGROV-1 = system: IGROV-1
M14 = system: M14
MOLT-4 = system: MOLT-4
NCI-H460 = system: NCI-H460
OVCAR-3 = system: OVCAR-3
OVCAR-5 = system: OVCAR-5
SK-OV-3 = system: SK-OV-3
SN12C = system: SN12C
SNB-75 = system: SNB-75
SR = system: SR
SW-620 = system: SW-620
UACC-257 = system: UACC-257
OVCAR-8 = system: OVCAR-8
RPMI-8226 = system: RPMI-8226

O=c1ccc2nc3cc(Br)ccc3sc-2c1
GI50 (A549): > 100 µM (inactive)
GI50 (CAKI-1): 32.3 µM (inactive)
GI50 (CCRF-CEM): 12.9 µM (inactive)
GI50 (COLO 205): > 100 µM (inactive)
GI50 (EKVX): > 100 µM (inactive)
GI50 (HCT-15): 74.1 µM
GI50 (IGROV-1): > 100 µM (inactive)
GI50 (M14): > 100 µM (inactive)
GI50 (MOLT-4): 21.7 µM (inactive)
GI50 (NCI-H460): > 100 µM (inactive)
GI50 (OVCAR-3): > 100 µM (inactive)
GI50 (OVCAR-5): > 100 µM (inactive)
GI50 (SK-OV-3): > 100 µM (inactive)
GI50 (SN12C): > 100 µM (inactive)
GI50 (SNB-75): > 100 µM (inactive)
GI50 (SR): 33 µM (inactive)
GI50 (SW-620): > 100 µM (inactive)
GI50 (UACC-257): > 100 µM (inactive)

CSc1nc(Cl)c2c(n1)Sc1ncnn1C2O (stereo not drawn)
GI50 (A549): 19.8 µM (inactive)
GI50 (CAKI-1): 12.7 µM (inactive)
GI50 (CCRF-CEM): 1.56 µM (inactive)
GI50 (COLO 205): 0.843 µM (active)
GI50 (EKVX): 17.2 µM (inactive)
GI50 (HCT-15): 4.37 µM
GI50 (IGROV-1): 18.9 µM (inactive)
GI50 (M14): 14.3 µM (inactive)
GI50 (MOLT-4): 6.7 µM (inactive)
GI50 (NCI-H460): 21 µM (inactive)
GI50 (OVCAR-3): 7.31 µM (inactive)
GI50 (OVCAR-5): 17.7 µM (inactive)
GI50 (OVCAR-8): 2.82 µM (inactive)
GI50 (SK-OV-3): 27.3 µM (inactive)
GI50 (SN12C): 11 µM (inactive)
GI50 (SR): 2.86 µM (inactive)
GI50 (SW-620): 2.88 µM (inactive)
GI50 (UACC-257): 19.5 µM (inactive)

O=C(O)C12CCCC(CCC1)C2
GI50 (A549): > 100 µM (inactive)
GI50 (CAKI-1): > 100 µM (inactive)
GI50 (CCRF-CEM): > 100 µM (inactive)
GI50 (COLO 205): > 100 µM (inactive)
GI50 (EKVX): > 100 µM (inactive)
GI50 (HCT-15): > 100 µM
GI50 (IGROV-1): > 100 µM (inactive)
GI50 (M14): > 100 µM (inactive)
GI50 (MOLT-4): > 100 µM (inactive)
GI50 (NCI-H460): > 100 µM (inactive)
GI50 (OVCAR-3): > 100 µM (inactive)
GI50 (OVCAR-5): > 100 µM (inactive)
GI50 (OVCAR-8): > 100 µM (inactive)
GI50 (RPMI-8226): > 100 µM (inactive)
GI50 (SK-OV-3): > 100 µM (inactive)
GI50 (SN12C): > 100 µM (inactive)
GI50 (SNB-75): > 100 µM (inactive)
GI50 (SW-620): > 100 µM (inactive)
GI50 (UACC-257): > 100 µM (inactive)

COC1CCC(O)C(CO)O1 (stereo not drawn)
GI50 (A549): > 100 µM (inactive)
GI50 (CCRF-CEM): 10.9 µM (inactive)
GI50 (EKVX): > 100 µM (inactive)
GI50 (HCT-15): > 100 µM
GI50 (IGROV-1): 22.7 µM (inactive)
GI50 (M14): 43.2 µM (inactive)
GI50 (MOLT-4): 27.6 µM (inactive)
GI50 (NCI-H460): > 100 µM (inactive)
GI50 (OVCAR-3): 41.4 µM (inactive)
GI50 (OVCAR-5): > 100 µM (inactive)
GI50 (OVCAR-8): > 100 µM (inactive)
GI50 (SK-OV-3): > 100 µM (inactive)
GI50 (SN12C): > 100 µM (inactive)
GI50 (SNB-75): > 100 µM (inactive)
GI50 (SR): 45.3 µM (inactive)
GI50 (SW-620): 24.3 µM (inactive)
GI50 (UACC-257): 37.4 µM (inactive)

COc1cc(C2c3cc4c(cc3[C@@H](Nc3ccc5c(c3)OCO5)C3COC(=O)[C@H]23)OCO4)cc(OC)c1O (stereo partly drawn)
GI50 (A549): 0.0294 µM (active)
GI50 (CAKI-1): 0.152 µM (active)
GI50 (CCRF-CEM): 0.0641 µM (active)
GI50 (COLO 205): 1.68 µM (inactive)
GI50 (EKVX): 2.45 µM (inactive)
GI50 (HCT-15): 0.336 µM
GI50 (IGROV-1): 2.49 µM (inactive)
GI50 (MOLT-4): < 0.0136 µM (active)
GI50 (NCI-H460): < 0.01 µM (active)
GI50 (OVCAR-3): 2.9 µM (inactive)
GI50 (OVCAR-5): 2.74 µM (inactive)
GI50 (OVCAR-8): 1.38 µM (inactive)
GI50 (RPMI-8226): 0.774 µM (active)
GI50 (SK-OV-3): 1.25 µM (inactive)
GI50 (SN12C): 0.643 µM (active)
GI50 (SNB-75): 0.991 µM (active)
GI50 (SW-620): 1.2 µM (inactive)
GI50 (UACC-257): 0.507 µM (active)

CC1(C)OC2CC(=O)OCC23C1CC(=O)C1(C)C3CCC2(C)C(c3ccoc3)OC(=O)C3OC321 (stereo not drawn)
GI50 (A549): > 125 µM (inactive)
GI50 (CAKI-1): 16.1 µM (inactive)
GI50 (CCRF-CEM): > 125 µM (inactive)
GI50 (COLO 205): > 125 µM (inactive)
GI50 (EKVX): > 58.1 µM (inactive)
GI50 (HCT-15): > 125 µM
GI50 (IGROV-1): > 125 µM (inactive)
GI50 (MOLT-4): > 125 µM (inactive)
GI50 (NCI-H460): > 125 µM (inactive)
GI50 (OVCAR-3): > 125 µM (inactive)
GI50 (OVCAR-5): > 125 µM (inactive)
GI50 (OVCAR-8): 11.7 µM (inactive)
GI50 (RPMI-8226): > 125 µM (inactive)
GI50 (SK-OV-3): > 125 µM (inactive)
GI50 (SN12C): > 39.5 µM (inactive)
GI50 (SNB-75): 64.7 µM (inactive)
GI50 (SW-620): > 125 µM (inactive)
GI50 (UACC-257): 124 µM (inactive)

c1ccc2c(c1)SP1Sc3ccccc3P21 (stereo not drawn)
GI50 (A549): > 100 µM (inactive)
GI50 (CCRF-CEM): > 87.1 µM (inactive)
GI50 (COLO 205): > 100 µM (inactive)
GI50 (EKVX): > 100 µM (inactive)
GI50 (HCT-15): > 100 µM
GI50 (IGROV-1): > 100 µM (inactive)
GI50 (MOLT-4): > 100 µM (inactive)
GI50 (NCI-H460): > 100 µM (inactive)
GI50 (OVCAR-3): > 100 µM (inactive)
GI50 (OVCAR-5): > 100 µM (inactive)
GI50 (OVCAR-8): > 89.3 µM (inactive)
GI50 (RPMI-8226): 59.6 µM (inactive)
GI50 (SK-OV-3): > 100 µM (inactive)
GI50 (SN12C): 63.4 µM (inactive)
GI50 (SNB-75): 61.9 µM (inactive)
GI50 (SW-620): > 100 µM (inactive)
GI50 (UACC-257): > 100 µM (inactive)

COc1ccc(C2CC(c3c(O)ccc4ccccc34)=NN2)cc1OC (stereo not drawn)
GI50 (CAKI-1): 4.9 µM (inactive)
GI50 (CCRF-CEM): 4.85 µM (inactive)
GI50 (COLO 205): 6.12 µM (inactive)
GI50 (EKVX): 6.01 µM (inactive)
GI50 (HCT-15): 4.45 µM
GI50 (IGROV-1): 4.43 µM (inactive)
GI50 (M14): 4.1 µM (inactive)
GI50 (MOLT-4): 2.24 µM (inactive)
GI50 (NCI-H460): 2.92 µM (inactive)
GI50 (OVCAR-3): 4.46 µM (inactive)
GI50 (OVCAR-5): 3.9 µM (inactive)
GI50 (OVCAR-8): 2.98 µM (inactive)
GI50 (RPMI-8226): 8 µM (inactive)
GI50 (SK-OV-3): 7.94 µM (inactive)
GI50 (SN12C): 4.32 µM (inactive)
GI50 (SNB-75): 1.22 µM (inactive)
GI50 (UACC-257): 6.81 µM (inactive)

CNC(=O)CNC(=O)CCC(=O)N(C)C
GI50 (A549): > 100 µM (inactive)
GI50 (CAKI-1): > 100 µM (inactive)
GI50 (CCRF-CEM): > 100 µM (inactive)
GI50 (COLO 205): > 100 µM (inactive)
GI50 (EKVX): > 100 µM (inactive)
GI50 (HCT-15): > 100 µM
GI50 (IGROV-1): > 100 µM (inactive)
GI50 (M14): > 100 µM (inactive)
GI50 (MOLT-4): > 100 µM (inactive)
GI50 (NCI-H460): > 100 µM (inactive)
GI50 (OVCAR-3): > 100 µM (inactive)
GI50 (OVCAR-5): > 100 µM (inactive)
GI50 (OVCAR-8): > 100 µM (inactive)
GI50 (RPMI-8226): > 100 µM (inactive)
GI50 (SK-OV-3): > 100 µM (inactive)
GI50 (SN12C): > 100 µM (inactive)
GI50 (SNB-75): > 100 µM (inactive)
GI50 (SW-620): > 100 µM (inactive)
GI50 (UACC-257): > 100 µM (inactive)

[O-][n+]1c2c([n+]([O-])c3ccccc31)-c1cccc3cccc-2c13
GI50 (A549): > 100 µM (inactive)
GI50 (CCRF-CEM): > 100 µM (inactive)
GI50 (COLO 205): > 100 µM (inactive)
GI50 (HCT-15): > 100 µM
GI50 (M14): 48.1 µM (inactive)
GI50 (MOLT-4): > 100 µM (inactive)
GI50 (NCI-H460): 91.2 µM (inactive)
GI50 (OVCAR-3): > 100 µM (inactive)
GI50 (OVCAR-8): > 100 µM (inactive)
GI50 (SN12C): > 100 µM (inactive)
GI50 (SNB-75): 18.4 µM (inactive)
GI50 (SR): > 100 µM (inactive)
GI50 (SW-620): > 100 µM (inactive)
GI50 (UACC-257): > 100 µM (inactive)

CC(C)C[C@@H](NC(=O)[C@@H](Cc1cccc2ccccc12)NC(=O)N1CCOCC1)B(O)O
GI50 (A549): > 100 µM (inactive)
GI50 (CAKI-1): 72.8 µM (inactive)
GI50 (COLO 205): 48.4 µM (inactive)
GI50 (HCT-15): > 100 µM
GI50 (IGROV-1): > 100 µM (inactive)
GI50 (M14): 28.2 µM (inactive)
GI50 (MOLT-4): 31.5 µM (inactive)
GI50 (NCI-H460): > 100 µM (inactive)
GI50 (OVCAR-3): 29.4 µM (inactive)
GI50 (OVCAR-5): 75.3 µM (inactive)
GI50 (OVCAR-8): > 100 µM (inactive)
GI50 (RPMI-8226): 32.5 µM (inactive)
GI50 (SN12C): 96.2 µM (inactive)
GI50 (SR): 27 µM (inactive)
GI50 (UACC-257): > 100 µM (inactive)

CN(C)CCCNC(=O)N/N=C/c1ccccn1
GI50 (A549): > 10 µM (inactive)
GI50 (CCRF-CEM): > 10 µM (inactive)
GI50 (COLO 205): > 10 µM (inactive)
GI50 (EKVX): > 10 µM (inactive)
GI50 (HCT-15): > 10 µM
GI50 (IGROV-1): > 10 µM (inactive)
GI50 (M14): > 10 µM (inactive)
GI50 (MOLT-4): > 10 µM (inactive)
GI50 (NCI-H460): > 10 µM (inactive)
GI50 (OVCAR-5): > 10 µM (inactive)
GI50 (OVCAR-8): > 10 µM (inactive)
GI50 (RPMI-8226): > 10 µM (inactive)
GI50 (SK-OV-3): > 10 µM (inactive)
GI50 (SN12C): > 10 µM (inactive)
GI50 (SNB-75): > 10 µM (inactive)
GI50 (SR): > 10 µM (inactive)
GI50 (SW-620): > 10 µM (inactive)
GI50 (UACC-257): 9.42 µM (inactive)
